According to US7829298B2, “Human G protein-coupled receptors for metabolic-related disorders” (Arena Pharmaceuticals, Inc., priority 2001, dated 2010):
Entries after “also recorded” stand apart in the source; their conditions may differ. Like-named read-outs stand apart in the source and are kept apart here. Values belong to the molecule of their own block, whether it stands above or below them.

Tests used:
[1] = tested on: adipocyte primary cultures derived from human subcutaneous fat; assay: Isoproterenol induced lipolysis in human primary adipocytes; assay type: cell-based; conditions: for EC50: read-out: EC50, inhibition of isoproterenol induced lipolysis
From the text: Lipolysis assays were done following the isolation of adipocytes from rat or human. The source of fat from rats was the epididymal fat and from humans was either subcutaneous or omental. Cells were isolated following collagenase digestion and floatation. An elevation of intracellular cAMP levels and concomitant activation of lipolysis via hormone sensitive lipase was accomplished using isoproterenol, forskolin, 3-isobutyl-1-methyl-xanthine (IBMX) or a combination thereof at concentrations and times determined empirically and depending on the source of tissue. […] Data was analyzed using Excel and PrismGraph.

hRUP38 = target: T1, hRUP38 (Homo sapiens, UniProt P49019); assay: Inhibition of forskolin stimulated cAMP in stable CHO cells (adenylyl cyclase assay); assay type: cell-based
T1 construct: The full length hRUP38 was cloned by PCR using hRUP38 specific primers; expressed in transfected cells
From the text: (§1) A Flash Plate™ Adenylyl Cyclase kit (New England Nuclear; Cat. No. SMP004A) designed for cell-based assays can be modified for use with crude plasma membranes. The Flash Plate wells can contain a scintillant coating which also contains a specific antibody recognizing cAMP. The cAMP generated in the wells can be quantitated by a direct competition for binding of radioactive cAMP tracer to the cAMP antibody. The following serves as a brief protocol for the measurement of changes in cAMP levels in whole cells that express the receptors.
(§2) Media is carefully aspirated off and discarded. 10 ml of PBS is gently added to each dish of cells followed by careful aspiration. 1 ml of Sigma cell dissociation buffer and 3 ml of PBS are added to each plate. Cells were pipetted off the plate and the cell suspension was collected into a 50 ml conical centrifuge tube. Cells were then centrifuged at room temperature at 1,100 rpm for 5 min. The cell pellet was carefully re-suspended into an appropriate volume of PBS (about 3 ml/plate). The cells were then counted using a hemocytometer and additional PBS was added to give the appropriate number of cells (with a final volume of about 50 μl/well).
The cells were then added to the wells and incubated for 60 min at room temperature. 100 μl of Detection Mix containing tracer cAMP was then added to the wells. Plates were then incubated additional 2 hours followed by counting in a Wallac MicroBeta scintillation counter. Values of cAMP/well were then extrapolated from a standard cAMP curve which was contained within each assay plate.

hRUP25 = hRUP25 (Homo sapiens, UniProt Q8TDS4); assay: Inhibition of forskolin stimulated cAMP accumulation in stable CHO cells (adenylyl cyclase assay); assay type: cell-based; conditions: for inhibition of forskolin stimulated cAMP / agonist or not (in words): CHO cells expressing hRUP25
hRUP19 [2] = target: T2, hRUP19 (Homo sapiens, UniProt Q9BXC0); assay: Inhibition of forskolin stimulated cAMP in stable CHO cells (adenylyl cyclase assay); assay type: cell-based; set-up: The full length hRUP19 was cloned by PCR using primers; expressed in transfected cells; conditions: CHO cells expressing hRUP19
From the text: as §1
as §2, with “μl/well). […]” for “μl/well).”

male Sprague Dawley rats = conditions: for plasma free fatty acids (FFA) level (in words): fasted rats, IP injection, 15 mg/kg, 30 mg/kg or 45 mg/kg, time course
hRUP19 [3] = target: T2, hRUP19; conditions: HEK293 cells transfected with GqΔGi plus hRUP19
[4] = tested on: rat epididymal fat derived adipocytes; conditions: concentration of 10 μM

T1 sequence (P49019 whole entry K94N/T173P/F198L/H253R/I317M/I346M): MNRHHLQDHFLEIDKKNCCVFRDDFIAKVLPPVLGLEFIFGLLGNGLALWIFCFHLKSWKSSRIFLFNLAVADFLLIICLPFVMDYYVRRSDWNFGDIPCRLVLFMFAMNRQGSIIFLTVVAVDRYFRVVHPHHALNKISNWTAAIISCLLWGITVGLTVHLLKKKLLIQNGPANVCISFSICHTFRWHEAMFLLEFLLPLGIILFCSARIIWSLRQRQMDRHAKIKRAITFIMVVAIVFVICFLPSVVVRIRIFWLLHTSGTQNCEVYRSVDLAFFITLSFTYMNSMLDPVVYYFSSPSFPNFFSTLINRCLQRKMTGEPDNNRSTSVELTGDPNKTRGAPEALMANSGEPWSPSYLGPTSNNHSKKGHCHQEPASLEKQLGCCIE
Sequence of hRUP25 (Q8TDS4 whole entry): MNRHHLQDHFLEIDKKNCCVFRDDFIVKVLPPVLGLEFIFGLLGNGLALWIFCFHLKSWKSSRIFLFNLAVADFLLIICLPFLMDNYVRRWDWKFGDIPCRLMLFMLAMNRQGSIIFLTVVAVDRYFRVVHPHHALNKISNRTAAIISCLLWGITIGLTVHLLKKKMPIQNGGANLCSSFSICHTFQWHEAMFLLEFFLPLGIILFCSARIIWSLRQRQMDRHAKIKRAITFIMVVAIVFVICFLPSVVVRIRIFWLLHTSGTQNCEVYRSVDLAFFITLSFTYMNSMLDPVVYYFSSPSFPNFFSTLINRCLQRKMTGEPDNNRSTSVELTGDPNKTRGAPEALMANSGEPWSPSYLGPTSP
T2 sequence (Q9BXC0 whole entry): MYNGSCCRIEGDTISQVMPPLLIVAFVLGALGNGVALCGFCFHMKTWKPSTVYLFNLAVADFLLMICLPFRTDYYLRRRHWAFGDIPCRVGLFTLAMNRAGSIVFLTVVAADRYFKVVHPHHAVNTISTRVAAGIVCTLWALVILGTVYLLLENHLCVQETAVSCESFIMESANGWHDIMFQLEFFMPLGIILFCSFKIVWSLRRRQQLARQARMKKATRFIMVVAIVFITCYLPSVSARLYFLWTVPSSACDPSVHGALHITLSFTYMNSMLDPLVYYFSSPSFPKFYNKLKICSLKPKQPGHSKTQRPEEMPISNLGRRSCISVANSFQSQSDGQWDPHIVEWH

EC50 (hRUP38; hRUP38-expressing CHO cells): 1170 nM
inhibition of forskolin stimulated cAMP / agonist or not (in words) (hRUP25): no effect
inhibition of forskolin stimulated cAMP / agonist or not (in words) (hRUP19 [2]): no effect
SMILES: CCOc1ccc(Br)cc1C=CC(=O)O [3-(5-Bromo-2-ethoxy-phenyl)-acrylic acid]
inhibition of forskolin stimulated cAMP / agonist or not (in words) (hRUP38; hRUP38-expressing CHO cells): activates inhibition of forskolin stimulated cAMP; also recorded: agonist for RUP38

inhibition of forskolin stimulated cAMP / agonist or not (in words) (hRUP38; hRUP38-expressing CHO cells): not for RUP38
activity on hRUP38-expressing CHO cells (in words) (hRUP38; up to a concentration of at least 100 μM (not shown)): no activity
inhibition of forskolin stimulated cAMP / agonist or not (in words) (hRUP25; listed as (5-Hydroxy-1-methyl-3-propyl-1H-pyrazol-4-yl)-pyridin-3-yl-methanone): agonist for RUP25
EC50 (hRUP25; hRUP25-expressing CHO cells (stable line #46 in FIG. 18B), read-out: EC50, inhibition of forskolin stimulated cAMP accumulation): 352 nM
SMILES: CCCc1nn(C)c(O)c1C(=O)c1cccnc1 [(5-Hydroxy-1-methyl-3-propyl-1H-pyrazol-4-yl)-pyridin-3-yl-methanone]
inhibition of forskolin stimulated cAMP / agonist or not (in words) (hRUP25): activates inhibition of forskolin stimulated cAMP

inhibition of forskolin stimulated cAMP / agonist or not (in words) (hRUP38; hRUP38-expressing CHO cells): does and agonist for hRUP38
inhibition of forskolin stimulated cAMP / agonist or not (in words) (hRUP25): no effect
inhibition of forskolin stimulated cAMP / agonist or not (in words) (hRUP19 [2]): no effect
SMILES: CC(C)n1nnc2cc(C(=O)O)ccc21 [1-Isopropyl-1H-benzotriazole-5-carboxylic acid]
inhibition of isoproterenol stimulated lipolysis (in words) ([1]; isoproterenol 100 nM, primary human adipocytes): dose-dependant manner comparable to that of nicotinic acid; also recorded: dose-dependent manner comparable to that of nicotinic acid; also recorded: inhibit lipolysis

Continued, molecule first:

SMILES: c1cncc(-c2nn[nH]n2)c1 [P-3-T, 3-tetrazole-5-pyridine, reference compound]
EC50 ([1]; adipocyte primary cultures derived from human subcutaneous fat): 218 nM

SMILES: O=C(O)c1cccnc1 [nicotinic acid, Nicotinic acid]
plasma FFA versus vehicle control after inhibition, rebound (in words) (male Sprague Dawley rats; 45 mg/kg IP, at 3 hr): rebound effect
plasma free fatty acids (FFA) level (in words) (male Sprague Dawley rats): lower plasma free fatty acids
plasma free fatty acids (FFA) level (in words) (male Sprague Dawley rats; listed as niacin): significantly decrease
inhibition of isoproterenol stimulated lipolysis (in words) [1]: inhibit lipolysis
EC50 ([1]; Homo sapiens, Adipocyte): 716 nM
inositol phosphates (IPs) accumulation / agonist or not (in words) (hRUP19 [3]): unresponsive
inositol phosphates (IPs) accumulation / agonist or not (in words) (hRUP19 [3]; listed as Nicotinic acid): not for RUP38 or RUP19
inhibition of isoproterenol induced lipolysis (in words) [4]: inhibiting isoproterenol induced lipolysis

SMILES: CN1CCC[C@H]1c1cccnc1 [(−)-nicotine, (−)-NICOTINE, reference compound]
EC50 (hRUP25): 9800 nM
inhibition of forskolin stimulated cAMP / agonist or not (in words) (hRUP25): agonist for RUP25
